In paper PMC3177598 (Bioorganic & medicinal chemistry letters, 2008):

What was measured:
D2 = D2 (Homo sapiens, UniProt P14416); assay: D2 antagonist activity / D2 inhibition; assay type: cell-based
mAChRs (M1, M3 and M5) = settings: in our hands; ref [8]; cited from earlier work

D2, sequence (P14416 whole entry): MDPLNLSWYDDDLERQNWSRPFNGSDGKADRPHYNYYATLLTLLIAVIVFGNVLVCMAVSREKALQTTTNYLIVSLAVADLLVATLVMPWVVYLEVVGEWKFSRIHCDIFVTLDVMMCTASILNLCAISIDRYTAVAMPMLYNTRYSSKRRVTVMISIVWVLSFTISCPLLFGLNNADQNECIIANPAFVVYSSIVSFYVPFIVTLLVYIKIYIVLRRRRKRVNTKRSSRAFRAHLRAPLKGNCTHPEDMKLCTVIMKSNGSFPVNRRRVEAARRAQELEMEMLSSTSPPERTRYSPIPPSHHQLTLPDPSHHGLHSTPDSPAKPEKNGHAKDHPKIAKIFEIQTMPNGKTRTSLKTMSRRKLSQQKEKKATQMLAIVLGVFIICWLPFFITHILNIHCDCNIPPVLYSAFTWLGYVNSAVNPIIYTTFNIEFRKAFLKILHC

Row | Compound | D2 inhibition (in words) (D2) | mAChR subtypes activated (in words) (mAChRs (M1, M3 and M5))
1 | Cc1ccccc1CN1CCC(N2CCC(n3c(=O)[nH]c4ccc(F)cc43)CC2)CC1 [Compound 20c] | no significant D2 inhibition | –
2 | CC[C@@H]1SC2(CCN(C)CC2)NC1=O [AF267B] | – | activates M1, M3 and M5, and is M3 preferring
3 | Cc1ccccc1CN1CCC(N2CCC(n3c(=O)[nH]c4cc(F)ccc43)CC2)CC1 [Compound 20b] | no significant D2 inhibition | –
